Patent publication US10710978B2, “STK4 inhibitors for treatment of hematologic malignancies” (Dana-Farber Cancer Institute, Inc., priority 2015, dated 2020)
Several values for one entry are separate records, joined by “and”; a condition that tells them apart may be missing. Equal entries are not always repeated.

Columns and labels:
STK4 (MST1) = STK4 (MST1) (Homo sapiens (Human), UniProt Q13043); assay: Z-lyte biochemical IC50 assay (Invitrogen); settings: ATP concentration matched the Km
Experimental: (§1) STK4 (MST1), STK3 (MST2); STK24 (MST3) and MST4 Assays
(§2) Biochemical IC50s were measured at Invitrogen using Z-lyte technology. Briefly, for STK4, the 2×STK4 (MST1)/Ser/Thr 07 mixture was prepared in 50 mM HEPES pH 7.5, 0.01% BRIJ35, 10 mM MgCl2, 1 mM EGTA. The final 10 μL Kinase Reaction consisted of 6.25-160 ng STK4 (MST1) and 2 μM Ser/Thr 07 in 50 mM HEPES pH 7.5, 0.01% BRIJ-35, 10 mM MgCl2, 1 mM EGTA. After the 1 hour Kinase Reaction incubation, 5 μL of a 1:100000 dilution of Development Reagent A was added. Compounds were screened in a 10 point titration with 3-fold serial dilutions starting at a concentration of 10 μM. The biochemical IC50s against other STK family members were measured similarly. The ATP concentration used matched the Km for each kinase.

STK24 (MST3) = STK24 (MST3) (Homo sapiens (Human), UniProt Q9Y6E0); assay: Z-lyte biochemical IC50 assay (Invitrogen); settings: ATP concentration matched the Km
Experimental: as §1, §2

STK3 (MST2) = STK3 (MST2) (Homo sapiens (Human), UniProt Q13188); assay: Z-lyte biochemical IC50 assay (Invitrogen); settings: ATP concentration matched the Km
Experimental: as §1, §2

YAP1 = assay: Western blotting; format: cell-based; settings: H929 and MM.1S cells, 3 μM and 10 μM, 72 hours
Source text: (§3) MM.1S, KMS20 and H929 cells are counted, diluted and plated. Cells are then […] with DMSO or different concentration of a compound of the present application for 6 hrs, 24 hrs or 48 hrs. MM cells are then collected and centrifuged at RT and the pellets are re-suspended in lysis buffer. Cell lysates are subjected to sodium dodecyl sulfate-polyacrylamide gel electrophoresis SDS-PAGE, transferred to nitrocellulose membranes, and immunoblotted with different antibodies.
(§4) MM.1S, KMS20 and H929 cells were counted, diluted and plated in six-well plates to a final concentration of 500,000 cells/well. Cells were then […] with DMSO or different concentration of a compound of the present application for 6 hrs, 24 hrs or 48 hrs. MM cells were then collected and centrifuged for 5 min, 1300 rpm at RT. The pellets were re-suspended in lysis buffer Laemli 1× (Laemli 5×: SDS 10%, DTT 500 mM, Tris-HCl pH6.8 0.4M, BromoFenol Blue, Glycerol 50%). Cell lysates were subjected to sodium dodecyl sulfate-polyacrylamide gel electrophoresis SDS-PAGE, transferred to nitrocellulose membranes, and immunoblotted with different antibodies: YAP1 (#4912), p-YAP1 (S127) (#13008), LATS1 (#9153), p-LATS1 (Thr1079) (#8654), MOB1 (#3863), p-MOB1 (Thr12) (#8843), p-MST1/p-MST2 (Thr183/Thr180) (#3681), p21 (#2947), PARP (#9532), ERK, STAT, and GAPDH (#5174) from Cell Signaling, Beverly, Mass., United States; STK4 (ab57836) (from Abcam, Cambridge, Mass., United States); PUMA (sc-28226), BAX (sc-20067), from Santa Cruz, Dallas, Tex., United States; β-actin from Sigma-Aldrich (St. Louis, Mo., United States). All antibodies were diluted 1:500, except for β-actin antibody (1:50,000 dilution). In FIG. 8, H929 cells were treated with Compound I-9 or DMSO at 1 μM concentration for 24 hours. Lysates were then obtained and immunoblot was performed using antibodies against PARP, YAP1, PUMA, BAX. p21, and GAPDH.
In FIG. 10A, H929 and MM.1S cells were treated with Compound I-1 or DMSO at 1 μM and 10 μM concentrations for 16 hours. Lysates were then obtained and immunoblot was performed using antibodies against YAP1 and GAPDH.
In FIG. 12, H929 and MM. 1S cells were treated with Compound I-9, Compound I-12, or DMSO at 3 μM and 10 μM concentrations for 72 hours. Lysates were then obtained and immunoblot was performed using antibodies against YAP1 and Actin as loading control.
FIG. 13 show a Western blot of H929 and MM.1S cells treated with Compound I-13, Compound I-28, Compound I-9, KIN001-305, BMS536924, or DMSO at 1 μM concentration for 16 hours. Lysates were then obtained and immunoblot was performed using antibodies against YAP1, Actin, and pMOB1.

p-MOB1 = assay: Western blotting; format: cell-based; settings: MM.1S cells, 1 μM and 10 μM, 6 hours
Source text: as §3, §4
In FIGS. 26A-26J, MM.1S cells were treated with Compound I-6, Compound I-31, Compound I-30, Compound I-22, Compound I-27, Compound I-1, Compound I-23, Compound I-13, Compound I-28, Compound I-9, or DMSO at 1 μM and 10 μM concentrations for 6 hours. Lysates were then obtained and immunoblot was performed using antibodies against MOB1 and p-MOB1. As shown from FIGS. 26A-26J, Compound I-22, Compound I-27, Compound I-1, Compound I-23, Compound I-13, Compound I-28, and Compound I-9 reduced PMOB1 levels at different concentrations.

STK4 = STK4 (Homo sapiens (Human), UniProt Q13043); assay: KiNativ Platform experiment, MM.1S cell lysates, biotinylated ATP, Western blot; format: binding; settings: 10 μM, 20 minutes, then biotinylated ATP 10 minutes
Experimental: FIG. 32A and FIG. 32B show the results of a KiNativ™ Platform experiment obtained after incubating MM.1S cell lysates with 10 μM of the indicated compounds for 20 minutes, followed by incubation with biotinylated ATP for 10 minutes. FIG. 32A is a graph showing the ratio of MEK2 to STK4 derived from the Western blotting band signals in FIG. 32B, in MM.1S cell lysates treated with 10 μM of Compound I-9, I-13, or I-27 or KIN001-305 followed by incubation with biotinylated ATP. FIG. 32B is a Western blot showing the levels of STK4 and MEK2 in MM.1S cells treated with 10 μM of Compound I-9, I-13, or I-27 or KIN001-305 followed by incubation with biotinylated ATP.

Sequence of STK24 (MST3) (Q9Y6E0 whole entry): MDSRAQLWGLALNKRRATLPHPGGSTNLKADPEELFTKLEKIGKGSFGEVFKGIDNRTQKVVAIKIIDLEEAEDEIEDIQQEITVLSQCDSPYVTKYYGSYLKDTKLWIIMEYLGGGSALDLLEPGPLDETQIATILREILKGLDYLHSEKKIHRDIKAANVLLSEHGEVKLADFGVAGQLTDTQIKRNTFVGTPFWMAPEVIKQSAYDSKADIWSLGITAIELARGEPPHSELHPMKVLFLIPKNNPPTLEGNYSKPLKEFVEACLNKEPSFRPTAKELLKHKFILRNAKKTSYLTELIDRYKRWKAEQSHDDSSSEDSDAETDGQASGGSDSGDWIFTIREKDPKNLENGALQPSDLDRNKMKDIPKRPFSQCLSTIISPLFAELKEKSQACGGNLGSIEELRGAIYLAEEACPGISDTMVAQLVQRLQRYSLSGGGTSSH
Sequence of STK4 (MST1) (Q13043 whole entry): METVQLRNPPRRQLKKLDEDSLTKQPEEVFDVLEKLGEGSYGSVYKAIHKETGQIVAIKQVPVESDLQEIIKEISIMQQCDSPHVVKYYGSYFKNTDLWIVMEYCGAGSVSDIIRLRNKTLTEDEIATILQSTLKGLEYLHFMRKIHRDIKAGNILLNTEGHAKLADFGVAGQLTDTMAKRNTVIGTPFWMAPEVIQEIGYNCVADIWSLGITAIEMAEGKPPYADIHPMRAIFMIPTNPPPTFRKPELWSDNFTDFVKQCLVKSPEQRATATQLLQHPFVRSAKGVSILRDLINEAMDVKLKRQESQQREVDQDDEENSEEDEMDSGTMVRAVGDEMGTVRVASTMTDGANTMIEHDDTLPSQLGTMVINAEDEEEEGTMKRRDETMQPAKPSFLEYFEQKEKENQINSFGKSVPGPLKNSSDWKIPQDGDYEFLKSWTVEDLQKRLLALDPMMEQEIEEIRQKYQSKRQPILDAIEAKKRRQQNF
Sequence of STK3 (MST2) (Q13188 whole entry): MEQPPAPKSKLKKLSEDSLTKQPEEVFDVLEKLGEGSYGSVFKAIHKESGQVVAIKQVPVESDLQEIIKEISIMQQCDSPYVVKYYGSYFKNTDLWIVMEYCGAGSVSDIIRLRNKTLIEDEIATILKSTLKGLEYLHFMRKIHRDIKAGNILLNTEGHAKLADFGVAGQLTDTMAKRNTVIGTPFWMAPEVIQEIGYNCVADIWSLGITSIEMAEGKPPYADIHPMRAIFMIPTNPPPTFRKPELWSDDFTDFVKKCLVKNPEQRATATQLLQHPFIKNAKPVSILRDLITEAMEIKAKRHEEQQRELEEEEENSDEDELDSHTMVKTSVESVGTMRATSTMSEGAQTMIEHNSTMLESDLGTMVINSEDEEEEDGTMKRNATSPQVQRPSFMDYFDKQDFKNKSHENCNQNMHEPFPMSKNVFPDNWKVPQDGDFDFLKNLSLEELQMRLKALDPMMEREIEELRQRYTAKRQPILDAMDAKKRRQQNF
Sequence of STK4 (Q13043 whole entry): as the sequence (Q13043 whole entry) above

| Compound | IC50 (STK4 (MST1)) | IC50 (STK24 (MST3)) [nM] | IC50 (STK3 (MST2)) [nM] | YAP1 levels (YAP1) | PMOB1 levels (p-MOB1) | affinity for STK4, as of ATP binding (STK4) |
| --- | --- | --- | --- | --- | --- | --- |
| Nc1ncc(-c2cccc([N+](=O)[O-])c2)cc1-c1ccc2c(c1)CCNC2=O [Compound I-2, 6-(2-amino-5-(3-nitrophenyl)pyridin-3-yl)-3,4-dihydroisoquinolin-1(2H)-one] | < 40 nM | > 900 |  |  |  |  |
| Nc1ncc(-c2ccccc2F)cc1-c1ccc2c(c1)CCNC2=O [Compound I-3, 6-(2-amino-5-(2-fluorophenyl)pyridin-3-yl)-3,4-dihydroisoquinolin-1(2H)-one] | 40 to 200 nM | > 900 |  |  |  |  |
| Nc1ncc(-c2cc([N+](=O)[O-])ccc2Cl)cc1-c1ccc2c(c1)CCNC2=O [Compound I-4, 6-(2-amino-5-(2-chloro-5-nitrophenyl)pyridin-3-yl)-3,4-dihydroisoquinolin-1(2H)-one] | > 900 nM | > 900 |  |  |  |  |
| Nc1ncc(-c2cnccc2F)cc1-c1ccc2c(c1)CCNC2=O [Compound I-5, 6-(6-amino-4′-fluoro-[3,3′-bipyridin]-5-yl)-3,4-dihydroisoquinolin-1(2H)-one] | 200 to 900 nM | > 900 |  |  |  |  |
| CCNC(=O)c1ccc(F)c(-c2cnc(N)c(-c3ccc4c(c3)CCNC4=O)c2)c1 [Compound I-6, 3-(6-amino-5-(1-oxo-1,2,3,4-tetrahydroisoquinolin-6-yl)pyridin-3-yl)-N-ethyl-4-fluorobenzamide] | > 900 nM | > 900 |  |  |  |  |
| Nc1ncc(-c2cccc(S(=O)(=O)NC3CC3)c2)cc1-c1ccc2c(c1)CCNC2=O [Compound I-12, 3-(6-amino-5-(1-oxo-1,2,3,4-tetrahydroisoquinolin-6-yl)pyridin-3-yl)-N-cyclopropylbenzenesulfonamide] | 40 to 200 nM | 200 to 900 | 40 to 200 | upregulation |  |  |
| Nc1ncc(-c2cc([N+](=O)[O-])c(Cl)cc2F)cc1-c1ccc2c(c1)CCNC2=O [Compound I-22, 6-(2-amino-5-(4-chloro-2-fluoro-5-nitrophenyl)pyridin-3-yl)-3,4-dihydroisoquinolin-1(2H)-one] | 40 to 200 nM |  | 40 to 200 |  | reduced |  |
| Nc1ncc(-c2cc3c(cc2F)OCC(=O)N3)cc1-c1ccc2c(c1)CCNC2=O [Compound I-23, 6-(6-amino-5-(1-oxo-1,2,3,4-tetrahydroisoquinolin-6-yl)pyridin-3-yl)-7-fluoro-2H-benzo[b][1,4]oxazin-3(4H)-one] | < 40 nM |  | 40 to 200 |  | reduced |  |
| Nc1ncc(-c2cc([N+](=O)[O-])c(NCc3ccccc3)cc2F)cc1-c1ccc2c(c1)CCNC2=O [Compound I-27, 6-(2-amino-5-(4-(benzylamino)-2-fluoro-5-nitrophenyl)pyridin-3-yl)-3,4-dihydroisoquinolin-1(2H)-one] | 40 to 200 nM |  |  |  | reduced | highest affinity |
| COc1cc(S(=O)(=O)N(C)C2CC2)ccc1-c1cnc(N)c(-c2ccc3c(c2)CCNC3=O)c1 [Compound I-72, 4-(6-amino-5-(1-oxo-1,2,3,4-tetrahydroisoquinolin-6-yl)pyridin-3-yl)-N-cyclopropyl-3-methoxy-N-methylbenzenesulfonamide] | < 40 nM | 40 to 200 | < 40 |  |  |  |
| CN(C1CC1)S(=O)(=O)c1ccc(-c2cnc(N)c(-c3ccc4c(c3)CNC4=O)c2)c(F)c1 [Compound I-74, 4-(6-amino-5-(1-oxoisoindolin-5-yl)pyridin-3-yl)-N-cyclopropyl-3-fluoro-N-methylbenzenesulfonamide] | < 40 nM and 40 to 200 nM | > 900 | < 40 |  |  |  |
| N#Cc1cccc(-c2cnc(N)c(-c3ccc4c(c3)CCNC4=O)c2)c1 [Compound I-75, 3-(6-amino-5-(1-oxo-1,2,3,4-tetrahydroisoquinolin-6-yl)pyridin-3-yl)benzonitrile] | 40 to 200 nM | 200 to 900 | 40 to 200 |  |  |  |
| Nc1ncc(-c2scnc2Cl)cc1-c1ccc2c(c1)CCNC2=O [Compound I-76, 6-(2-amino-5-(4-chlorothiazol-5-yl)pyridin-3-yl)-3,4-dihydroisoquinolin-1(2H)-one] | < 40 nM and 40 to 200 nM | > 900 | 40 to 200 |  |  |  |
| Nc1ncc(-c2scnc2Cl)cc1-c1ccc2c(c1)CCNC2=O [Compound I-77, 6-(2-amino-5-(4-chlorothiazol-5-yl)pyridin-3-yl)-3,4-dihydroisoquinolin-1(2H)-one] | 40 to 200 nM |  |  |  |  |  |
| CN(C1CC1)S(=O)(=O)c1ccc(-c2cnc(N)c(-c3ccc4c(c3)CCNC4=O)c2)cc1 [KIN001-305, reference compound] | < 40 nM |  |  |  |  | highest affinity |
